Test results as given in patent US20250179103A1, “6-OXODECAHYDROPYRROLO[1,2-A][1,5]DIAZOCINE AND 6-OXODECAHYDRO-4H-PYRROLO[2,1-D][1,5]THIAZOCINE DERIVATIVES AS STAT3 AND STAT6 MODULATORS FOR THE TREATMENT OF CANCER AND INFLAMMATORY CONDITIONS” (Recludix Pharma, Inc., priority 2022, published 2025).

What was measured:
[1] = target: T1, Recombinant STAT3 protein (STAT3(G127-I722)) (Homo sapiens, UniProt P40763); assay: STAT3 Fluorescence Polarization (FP) Assay; assay type: binding; details: STAT3(G127-I722) 25 nM, probe 5-FAM-GpYLPQTV-NH2 2 nM, 45-minute incubation
T1 construct: Recombinant STAT3 protein (STAT3(G127-I722))
T1 sequence (P40763 127-722): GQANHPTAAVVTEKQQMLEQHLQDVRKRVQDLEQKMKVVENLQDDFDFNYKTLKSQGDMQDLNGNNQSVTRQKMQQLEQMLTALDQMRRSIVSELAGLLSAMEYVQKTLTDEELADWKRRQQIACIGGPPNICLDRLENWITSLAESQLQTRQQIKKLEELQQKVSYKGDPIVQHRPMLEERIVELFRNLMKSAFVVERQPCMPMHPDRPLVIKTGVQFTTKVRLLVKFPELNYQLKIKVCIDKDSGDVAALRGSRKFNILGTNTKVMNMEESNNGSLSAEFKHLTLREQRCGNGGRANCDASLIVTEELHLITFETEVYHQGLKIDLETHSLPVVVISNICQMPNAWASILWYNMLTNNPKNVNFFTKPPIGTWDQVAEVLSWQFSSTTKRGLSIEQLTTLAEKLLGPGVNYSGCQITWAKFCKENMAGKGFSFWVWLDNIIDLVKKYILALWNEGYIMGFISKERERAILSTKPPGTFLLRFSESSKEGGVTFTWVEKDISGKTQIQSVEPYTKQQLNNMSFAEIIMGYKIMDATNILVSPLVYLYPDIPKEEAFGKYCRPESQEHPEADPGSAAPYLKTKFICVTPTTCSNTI
Method in brief: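 STAT3(G127-I722), 25 nM, was mixed with 2 nM 5-FAM-GpYLPQTV-NH2 probe in HEPES pH 7.4 buffer with 1% DMSO and serially diluted compound. FP (mP) was read after 45 min at room temperature. IC50 came from nonlinear regression.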

[2] = target: T2, Recombinant STAT6 protein (STAT6(W123-T658)) (Homo sapiens, UniProt P42226); assay: STAT6 Fluorescence Polarization (FP) Assay; assay type: binding; details: STAT6(W123-T658) 250 nM, probe 5-FAM-ApYKPFQDLI-NH2 2 nM, 45-minute incubation
T2 construct: Recombinant STAT6 protein (STAT6(W123-T658))
T2 sequence (P42226 123-658): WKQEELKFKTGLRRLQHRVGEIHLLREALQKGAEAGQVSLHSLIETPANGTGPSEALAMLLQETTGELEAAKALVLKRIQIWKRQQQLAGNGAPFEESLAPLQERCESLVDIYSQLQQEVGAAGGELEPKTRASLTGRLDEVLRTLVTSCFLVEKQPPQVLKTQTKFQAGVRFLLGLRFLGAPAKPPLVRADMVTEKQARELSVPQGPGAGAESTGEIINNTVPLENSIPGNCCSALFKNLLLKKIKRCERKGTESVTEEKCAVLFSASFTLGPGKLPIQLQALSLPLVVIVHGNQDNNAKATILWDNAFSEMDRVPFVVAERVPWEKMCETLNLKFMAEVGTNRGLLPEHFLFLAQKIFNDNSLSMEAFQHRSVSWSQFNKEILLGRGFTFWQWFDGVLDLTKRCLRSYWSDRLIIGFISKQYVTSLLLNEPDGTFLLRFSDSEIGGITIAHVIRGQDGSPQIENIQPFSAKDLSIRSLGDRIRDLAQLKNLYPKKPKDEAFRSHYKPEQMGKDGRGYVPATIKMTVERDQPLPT
Method in brief: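 Displacement of a fluorescent phosphotyrosine peptide (5-FAM-ApYKPFQDLI-NH2, 2 nM) from STAT6(W123-T658) (250 nM), 1% DMSO, pH 7.4 HEPES buffer. After 45 min at room temperature, polarization (mP) was plotted versus log compound concentration and fitted by nonlinear regression to give IC50.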

SMILES | IC50 [1] | IC50 [2]
CO[C@H]1CN(C(C)=O)C[C@@H]1NC(=O)[C@@H]1CC[C@@H]2CCN(C(C)=O)C[C@H](NC(=O)c3cc4cc(C(F)(F)P(=O)(O)O)ccc4s3)C(=O)N21 [Compound 184, ((2-(((5S,8S,10aR)-3-acetyl-8-(((3S,4S)-1-acetyl-4-methoxypyrrolidin-3-yl)carbamoyl)-6-oxodecahydropyrrolo[1,2-a][1,5]diazocin-5-yl)carbamoyl)benzo[b]thiophen-5-yl)difluoromethyl)phosphonic acid] | 100 to 1000 nM | 300 to 3000 nM
CC(=O)N1CC[C@H]2CC[C@@H](C(=O)N(C)c3ccc(C(C)(C)C)cc3)N2C(=O)[C@@H](NC(=O)c2cc3cc(C(F)(F)P(=O)(O)O)ccc3s2)C1 [Compound 185, ((2-(((5S,8S,10aR)-3-acetyl-8-((4-(tert-butyl)phenyl)(methyl)carbamoyl)-6-oxodecahydropyrrolo[1,2-a][1,5]diazocin-5-yl)carbamoyl)benzo[b]thiophen-5-yl)difluoromethyl)phosphonic acid] | 1000 to 10000 nM | 300 to 3000 nM
CC(=O)N1CC[C@H]2CC[C@@H](C(=O)N3CCC[C@H]3Cc3ccccc3)N2C(=O)[C@@H](NC(=O)c2cc3cc(C(F)(F)P(=O)(O)O)ccc3s2)C1 [Compound 186, ((2-(((5S,8S,10aR)-3-acetyl-8-((S)-2-benzylpyrrolidine-1-carbonyl)-6-oxodecahydropyrrolo[1,2-a][1,5]diazocin-5-yl)carbamoyl)benzo[b]thiophen-5-yl)difluoromethyl)phosphonic acid] | 1000 to 10000 nM | ≤ 300 nM
CC(=O)N1CC[C@H]2CC[C@@H](C(=O)N(C)c3ccc(Cl)cc3)N2C(=O)[C@@H](NC(=O)c2cc3cc(C(F)(F)P(=O)(O)O)ccc3s2)C1 [Compound 187, ((2-(((5S,8S,10aR)-3-acetyl-8-((4-chlorophenyl)(methyl)carbamoyl)-6-oxodecahydropyrrolo[1,2-a][1,5]diazocin-5-yl)carbamoyl)benzo[b]thiophen-5-yl)difluoromethyl)phosphonic acid] | 1000 to 10000 nM | 300 to 3000 nM
CC(=O)N1CC[C@H]2CC[C@@H](C(=O)N(C)c3ccc(Cl)c(Cl)c3)N2C(=O)[C@@H](NC(=O)c2cc3cc(C(F)(F)P(=O)(O)O)ccc3s2)C1 [Compound 188, ((2-(((5S,8S,10aR)-3-acetyl-8-((3,4-dichlorophenyl)(methyl)carbamoyl)-6-oxodecahydropyrrolo[1,2-a][1,5]diazocin-5-yl)carbamoyl)benzo[b]thiophen-5-yl)difluoromethyl)phosphonic acid] | 1000 to 10000 nM | 300 to 3000 nM
CC(=O)N1CC[C@H]2CC[C@@H](C(=O)Nc3ccc4ccnnc4c3)N2C(=O)[C@@H](NC(=O)c2cc3cc(C(F)(F)P(=O)(O)O)ccc3s2)C1 [Compound 189, ((2-(((5S,8S,10aR)-3-acetyl-8-(cinnolin-7-ylcarbamoyl)-6-oxodecahydropyrrolo[1,2-a][1,5]diazocin-5-yl)carbamoyl)benzo[b]thiophen-5-yl)difluoromethyl)phosphonic acid] | 1000 to 10000 nM | 300 to 3000 nM
CC(=O)N1CC[C@H]2CC[C@@H](C(=O)N(C)c3ccc(N4CCOCC4)cc3)N2C(=O)[C@@H](NC(=O)c2cc3cc(C(F)(F)P(=O)(O)O)ccc3s2)C1 [Compound 190, ((2-(((5S,8S,10aR)-3-acetyl-8-(methyl(4-morpholinophenyl)carbamoyl)-6-oxodecahydropyrrolo[1,2-a][1,5]diazocin-5-yl)carbamoyl)benzo[b]thiophen-5-yl)difluoromethyl)phosphonic acid] | 1000 to 10000 nM | 300 to 3000 nM
CC(=O)N1CC[C@H]2CC[C@@H](C(=O)N(C)c3ccc4nnccc4c3)N2C(=O)[C@@H](NC(=O)c2cc3cc(C(F)(F)P(=O)(O)O)ccc3s2)C1 [Compound 191, ((2-(((5S,8S,10aR)-3-acetyl-8-(cinnolin-6-yl(methyl)carbamoyl)-6-oxodecahydropyrrolo[1,2-a][1,5]diazocin-5-yl)carbamoyl)benzo[b]thiophen-5-yl)difluoromethyl)phosphonic acid] | 100 to 1000 nM | ≤ 300 nM
CC(=O)N1CC[C@H]2CC[C@@H](C(=O)N3CCC(C(=O)N4CCCCC4)CC3)N2C(=O)[C@@H](NC(=O)c2cc3cc(C(F)(F)P(=O)(O)O)ccc3s2)C1 [Compound 192, ((2-(((5S,8S,10aR)-3-acetyl-6-oxo-8-(4-(piperidine-1-carbonyl)piperidine-1-carbonyl)decahydropyrrolo[1,2-a][1,5]diazocin-5-yl)carbamoyl)benzo[b]thiophen-5-yl)difluoromethyl)phosphonic acid] | 1000 to 10000 nM | 3000 to 30000 nM
CC(=O)N1CC[C@H]2CC[C@@H](C(=O)N3CC[C@H](C(=O)N4CCCCC4)C3)N2C(=O)[C@@H](NC(=O)c2cc3cc(C(F)(F)P(=O)(O)O)ccc3s2)C1 [Compound 193, ((2-(((5S,8S,10aR)-3-acetyl-6-oxo-8-((S)-3-(piperidine-1-carbonyl)pyrrolidine-1-carbonyl)decahydropyrrolo[1,2-a][1,5]diazocin-5-yl)carbamoyl)benzo[b]thiophen-5-yl)difluoromethyl)phosphonic acid] | 100 to 1000 nM | 300 to 3000 nM
CC(=O)N1CC[C@H]2CC[C@@H](C(=O)N3CC[C@@H](C(=O)N4CCCCC4)C3)N2C(=O)[C@@H](NC(=O)c2cc3cc(C(F)(F)P(=O)(O)O)ccc3s2)C1 [Compound 194, ((2-(((5S,8S,10aR)-3-acetyl-6-oxo-8-((R)-3-(piperidine-1-carbonyl)pyrrolidine-1-carbonyl)decahydropyrrolo[1,2-a][1,5]diazocin-5-yl)carbamoyl)benzo[b]thiophen-5-yl)difluoromethyl)phosphonic acid] | 1000 to 10000 nM | 300 to 3000 nM
CC(=O)N1CC[C@H]2CC[C@@H](C(=O)N3CC(C(=O)N4CCN(C)CC4)C3)N2C(=O)[C@@H](NC(=O)c2cc3cc(C(F)(F)P(=O)(O)O)ccc3s2)C1 [Compound 195, ((2-(((5S,8S,10aR)-3-acetyl-8-(3-(4-methylpiperazine-1-carbonyl)azetidine-1-carbonyl)-6-oxodecahydropyrrolo[1,2-a][1,5]diazocin-5-yl)carbamoyl)benzo[b]thiophen-5-yl)difluoromethyl)phosphonic acid] | 1000 to 10000 nM | 300 to 3000 nM
CC(=O)N1CC[C@H]2CC[C@@H](C(=O)Nc3ccc(-c4ccccc4)cc3Cc3nccs3)N2C(=O)[C@@H](NC(=O)c2cc3cc(C(F)(F)P(=O)(O)O)ccc3s2)C1 [Compound 196, ((2-(((5S,8S,10aR)-3-acetyl-6-oxo-8-((3-(thiazol-2-ylmethyl)-[1,1′-biphenyl]-4-yl)carbamoyl)decahydropyrrolo[1,2-a][1,5]diazocin-5-yl)carbamoyl)benzo[b]thiophen-5-yl)difluoromethyl)phosphonic acid] | 100 to 1000 nM | 300 to 3000 nM
CC(=O)N1CC[C@H]2CC[C@@H](C(=O)N3CCOc4cc(-c5ccccc5)ccc43)N2C(=O)[C@@H](NC(=O)c2cc3cc(C(F)(F)P(=O)(O)O)ccc3s2)C1 [Compound 197, ((2-(((5S,8S,10aR)-3-acetyl-6-oxo-8-(7-phenyl-3,4-dihydro-2H-benzo[b][1,4]oxazine-4-carbonyl)decahydropyrrolo[1,2-a][1,5]diazocin-5-yl)carbamoyl)benzo[b]thiophen-5-yl)difluoromethyl)phosphonic acid] | 100 to 1000 nM | 300 to 3000 nM
CNC(=O)Cc1cc(-c2ccccc2)ccc1NC(=O)[C@@H]1CC[C@@H]2CCN(C(C)=O)C[C@H](NC(=O)c3cc4cc(C(F)(F)P(=O)(O)O)ccc4s3)C(=O)N21 [Compound 198, ((2-(((5S,8S,10aR)-3-acetyl-8-((3-(2-(methylamino)-2-oxoethyl)-[1,1′-biphenyl]-4-yl)carbamoyl)-6-oxodecahydrpyrrolo[1,2-a][1,5]diazocin-5-yl)carbamoyl)benzo[b]thiophen-5-yl)difluoromethyl)phosphonic acid] | 100 to 1000 nM | 300 to 3000 nM
CC(=O)N1CC[C@H]2CC[C@@H](C(=O)Nc3ccc4nnccc4c3)N2C(=O)[C@@H](NC(=O)c2ccc3ccc(C(F)(F)P(=O)(O)O)cc3c2)C1 [Compound 199, ((7-(((5S,8S,10aR)-3-acetyl-8-(cinnolin-6-ylcarbamoyl)-6-oxodecahydropyrrolo[1,2-a][1,5]diazocin-5-yl)carbamoyl)naphthalen-2-yl)difluoromethyl)phosphonic acid] | 1000 to 10000 nM | 300 to 3000 nM
